Measured values reported in patent US7897563B2, “Use of oligomers and polymers for drug solubilization, stabilization, and delivery” (Soane Family Trust, priority 2001, dated 2011).

Key:
[1] = Method: Log P values measure the partitioning of a molecule between an octanol-rich and a water-rich layer in contact with one another (see CRC Handbook of Chemistry and Physics, 79th edition, Lide, ed., pp. 16-42-16-46, CRC Press, 1998; and references within, all of which are incorporated herein by reference). Log P values are measured at a nominal temperature of 25 C. More preferably, hydrophobic means having a log P value greater than about 0.5, even more preferably a log P value greater than about 1, even more preferably a log P value greater than about 1.5, and most preferably a log P value greater than about 2.
[2] = octanol/water, nominal temperature of 25 C; from table in CRC Handbook of Chemistry and Physics; cited from earlier work

| Molecule | log P (estimate from a similar small molecule) [1] | log P [2] |
| --- | --- | --- |
| poly(lactic acid) | approximately 0.2 | – |
| CCCCOC(C)=O [butyl acetate] | – | 1.82 |
